Article PMC9250534, “Synthesis and direct assay of large macrocycle diversities by combinatorial late-stage modification at picomole scale” (Nature Communications, 2022)
Numbered stars: 1 amine (or outer) side, 2 acyl side, 3 side chain; on linkers, the order of the positions; unused ones are H or OH. Bridge positions count the residues as written; N and C are the ends. Square brackets hold non-standard residues; d marks the D form. Peptide text beside a SMILES is read from it. * marks the point of attachment. 2Thenoyl(5-Cl) = O=C(c1ccc(Cl)s1)*; Benzoyl(4-Cl) = O=C(c1ccc(Cl)cc1)*; Cysteamide = C(CS[*:3])N[*:1]; X1 = O=C(/C=C/c1ccccc1)*; Api = NC1(C(=O)O)CCNCC1; Dap = NC[CH](N)C(=O)O; Mpa = O=C(O)CCS

Biological target: MDM2 (Homo sapiens, UniProt Q00987)
Sequence (Q00987 whole entry): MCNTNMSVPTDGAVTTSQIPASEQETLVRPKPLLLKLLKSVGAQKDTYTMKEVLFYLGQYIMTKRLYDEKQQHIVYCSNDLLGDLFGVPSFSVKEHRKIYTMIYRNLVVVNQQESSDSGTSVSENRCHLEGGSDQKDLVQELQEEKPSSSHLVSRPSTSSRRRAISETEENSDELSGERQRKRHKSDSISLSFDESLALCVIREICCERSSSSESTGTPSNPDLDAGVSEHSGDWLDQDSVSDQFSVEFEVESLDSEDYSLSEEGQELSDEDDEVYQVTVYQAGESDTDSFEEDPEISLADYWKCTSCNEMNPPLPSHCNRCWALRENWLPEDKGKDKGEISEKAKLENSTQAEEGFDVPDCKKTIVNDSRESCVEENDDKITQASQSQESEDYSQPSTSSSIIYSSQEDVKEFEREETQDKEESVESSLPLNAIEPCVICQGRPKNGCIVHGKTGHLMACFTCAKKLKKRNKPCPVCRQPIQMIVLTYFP
Assay: MDM2 binding screen: displacement of fluorescent p53 peptide probe FP53 (fluorescence polarization)
Conditions: crude macrocycle reactions; for fraction fluorescent probe displaced, Screen: initial screen
Outline: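 Single-point screen: one fluorescence anisotropy reading at 25 °C (485 nm excitation, 535 nm emission) per macrocycle. Crude macrocycle reactions, final 10 µM, were scored for displacing the fluorescent p53 peptide from human MDM2.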

O=C1CCNC(=O)C(Cc2c[nH]c3ccccc23)NC(=O)C2CN(C(=O)c3ccc(Cl)s3)CCN2C(=O)CCSSCCN1 (stereo not shown) [X D7 W B2 Acid 14]
fraction fluorescent probe displaced, Screen (Acid 14): 0.11
fraction fluorescent probe displaced, Replicate (Acid 14): 0.10

O=C1CCNC(=O)C(Cc2c[nH]c3ccccc23)NC(=O)C2CN(C(=O)c3ccc(Cl)cc3)CCN2C(=O)CCSSCCN1 (stereo not shown) [X D7 W B2 Acid 25]
fraction fluorescent probe displaced, Screen (Acid 25): 0.22
fraction fluorescent probe displaced, Replicate (Acid 25): 0.17

O=C1NCCSSCCC(=O)N2CCN(C(=O)C=Cc3ccccc3)CC2C(=O)NC(Cc2c[nH]c3ccccc23)C(=O)N2CCCC1C2 (stereo not shown) [X D7 W B4 Acid 91]
fraction fluorescent probe displaced, Screen (Acid 91): 0.03
fraction fluorescent probe displaced, Replicate (Acid 91): 0.04

O=C1CCSSCCNC(=O)C(CNC(=O)c2ccc(Cl)s2)NC(=O)C2CCCN2C(=O)C(Cc2ccccc2)N1 (stereo not shown) [X F B1 D3 Acid 14] ([Mpa]FP[Dap](2Thenoyl(5-Cl))-Cysteamide; disulfide 1-C; configuration not given here)
fraction fluorescent probe displaced, Screen (Acid 14): 0.17
fraction fluorescent probe displaced, Replicate (Acid 14): 0.07

O=C1CCSSCCNC(=O)C(CNC(=O)c2ccc(Cl)cc2)NC(=O)C2CCCN2C(=O)C(Cc2ccccc2)N1 (stereo not shown) [X F B1 D3 Acid 25] ([Mpa]FP[Dap](Benzoyl(4-Cl))-Cysteamide; disulfide 1-C; configuration not given here)
fraction fluorescent probe displaced, Screen (Acid 25): 0.12
fraction fluorescent probe displaced, Replicate (Acid 25): 0.22

O=C(/C=C/c1ccccc1)NC[C@@H]1NC(=O)[C@@H]2CCCN2C(=O)[C@H](Cc2ccccc2)NC(=O)CCSSCCNC1=O [X F B1 D3 Acid 91] ([Mpa]FP[Dap](X1)-Cysteamide; disulfide 1-C)
fraction fluorescent probe displaced, Screen (Acid 91): 0.08
fraction fluorescent probe displaced, Replicate (Acid 91): 0.04

O=C1CCSSCCNC(=O)C2(CCN(C(=O)c3ccc(Cl)cc3)CC2)NC(=O)[C@@H]2CCCN2C(=O)[C@H](Cc2ccccc2)N1 [X F B1 D6 Acid 25] ([Mpa]FP[Api](Benzoyl(4-Cl))-Cysteamide; disulfide 1-C)
fraction fluorescent probe displaced, Screen (Acid 25): 0.22
fraction fluorescent probe displaced, Replicate (Acid 25): 0.10

O=C1CCSSCCNC(=O)C2(CCN(C(=O)/C=C/c3ccccc3)CC2)NC(=O)[C@@H]2CCCN2C(=O)[C@H](Cc2ccccc2)N1 [X F B1 D6 Acid 91] ([Mpa]FP[Api](X1)-Cysteamide; disulfide 1-C)
fraction fluorescent probe displaced, Screen (Acid 91): -0.05
fraction fluorescent probe displaced, Replicate (Acid 91): 0.0168

O=C1CCNC(=O)[C@H](Cc2ccccc2)NC(=O)CCSSCCNC(=O)[C@H](CNC(=O)c2ccc(Cl)s2)N1 [X F B2 D3 Acid 14]
fraction fluorescent probe displaced, Screen (Acid 14): 0.14
fraction fluorescent probe displaced, Replicate (Acid 14): 0.12

O=C1CCNC(=O)C(Cc2ccccc2)NC(=O)CCSSCCNC(=O)C(CNC(=O)c2ccc(Cl)cc2)N1 (stereo not shown) [X F B2 D3 Acid 25]
fraction fluorescent probe displaced, Screen (Acid 25): 0.22
fraction fluorescent probe displaced, Replicate (Acid 25): 0.17

O=C(/C=C/c1ccccc1)NC[C@@H]1NC(=O)CCNC(=O)[C@H](Cc2ccccc2)NC(=O)CCSSCCNC1=O [X F B2 D3 Acid 91]
fraction fluorescent probe displaced, Screen (Acid 91): 0.03
fraction fluorescent probe displaced, Replicate (Acid 91): 0.04

O=C1CCSSCCNC(=O)[C@@H]2C[C@H](NC(=O)c3ccc(Cl)s3)CN2C(=O)CCNC(=O)[C@H](Cc2ccccc2)N1 [X F B2 D5 Acid 14]
fraction fluorescent probe displaced, Screen (Acid 14): 0.08
fraction fluorescent probe displaced, Replicate (Acid 14): 0.07

O=C1CCSSCCNC(=O)C2CC(NC(=O)c3ccc(Cl)cc3)CN2C(=O)CCNC(=O)C(Cc2ccccc2)N1 (stereo not shown) [X F B2 D5 Acid 25]
fraction fluorescent probe displaced, Screen (Acid 25): 0.12
fraction fluorescent probe displaced, Replicate (Acid 25): 0.07

O=C1CCSSCCNC(=O)C2(CCN(C(=O)c3ccc(Cl)s3)CC2)NC(=O)CCNC(=O)C(Cc2ccccc2)N1 (stereo not shown) [X F B2 D6 Acid 14]
fraction fluorescent probe displaced, Screen (Acid 14): 0.20
fraction fluorescent probe displaced, Replicate (Acid 14): 0.0465

O=C1CCSSCCNC(=O)C2(CCN(C(=O)c3ccc(Cl)cc3)CC2)NC(=O)CCNC(=O)[C@H](Cc2ccccc2)N1 [X F B2 D6 Acid 25]
fraction fluorescent probe displaced, Screen (Acid 25): -0.00813
fraction fluorescent probe displaced, Replicate (Acid 25): -0.03

O=C1CCSSCCNC(=O)C2(CCN(C(=O)C=Cc3ccccc3)CC2)NC(=O)CCNC(=O)C(Cc2ccccc2)N1 (stereo not shown) [X F B2 D6 Acid 91]
fraction fluorescent probe displaced, Screen (Acid 91): 0.0563
fraction fluorescent probe displaced, Replicate (Acid 91): -0.00827

O=C1CCSSCCNC(=O)C2CN(C(=O)c3ccc(Cl)s3)CCN2C(=O)CCNC(=O)C(Cc2ccccc2)N1 (stereo not shown) [X F B2 D7 Acid 14]
fraction fluorescent probe displaced, Screen (Acid 14): 0.17
fraction fluorescent probe displaced, Replicate (Acid 14): 0.10

O=C1CCSSCCNC(=O)C2CN(C(=O)c3ccc(Cl)cc3)CCN2C(=O)CCNC(=O)[C@H](Cc2ccccc2)N1 (stereo partly shown) [X F B2 D7 Acid 25]
fraction fluorescent probe displaced, Screen (Acid 25): 0.12
fraction fluorescent probe displaced, Replicate (Acid 25): 0.10

O=C1CCSSCCNC(=O)C2CN(C(=O)C=Cc3ccccc3)CCN2C(=O)CCNC(=O)C(Cc2ccccc2)N1 (stereo not shown) [X F B2 D7 Acid 91]
fraction fluorescent probe displaced, Screen (Acid 91): 0.03
fraction fluorescent probe displaced, Replicate (Acid 91): 0.04

O=C1CCSSCCNC(=O)[C@H](CNC(=O)c2ccc(Cl)s2)NC(=O)[C@H]2CCCN(C2)C(=O)[C@H](Cc2ccccc2)N1 [X F B4 D3 Acid 14]
fraction fluorescent probe displaced, Screen (Acid 14): 0.23
fraction fluorescent probe displaced, Replicate (Acid 14): 0.17

O=C1CCSSCCNC(=O)C(CNC(=O)c2ccc(Cl)cc2)NC(=O)C2CCCN(C2)C(=O)C(Cc2ccccc2)N1 (stereo not shown) [X F B4 D3 Acid 25]
fraction fluorescent probe displaced, Screen (Acid 25): 0.12
fraction fluorescent probe displaced, Replicate (Acid 25): 0.22

O=C(/C=C/c1ccccc1)NC[C@@H]1NC(=O)[C@H]2CCCN(C2)C(=O)[C@H](Cc2ccccc2)NC(=O)CCSSCCNC1=O [X F B4 D3 Acid 91]
fraction fluorescent probe displaced, Screen (Acid 91): 0.19
fraction fluorescent probe displaced, Replicate (Acid 91): 0.17

O=C1CCSSCCNC(=O)C2CC(NC(=O)c3ccc(Cl)s3)CN2C(=O)C2CCCN(C2)C(=O)C(Cc2ccccc2)N1 (stereo not shown) [X F B4 D5 Acid 14]
fraction fluorescent probe displaced, Screen (Acid 14): 0.08
fraction fluorescent probe displaced, Replicate (Acid 14): 0.0465

O=C1CCSSCCNC(=O)C2(CCN(C(=O)c3ccc(Cl)s3)CC2)NC(=O)[C@H]2CCCN(C2)C(=O)[C@H](Cc2ccccc2)N1 [X F B4 D6 Acid 14]
fraction fluorescent probe displaced, Screen (Acid 14): 0.08
fraction fluorescent probe displaced, Replicate (Acid 14): 0.20

O=C1CCSSCCNC(=O)C2(CCN(C(=O)c3ccc(Cl)cc3)CC2)NC(=O)C2CCCN(C2)C(=O)C(Cc2ccccc2)N1 (stereo not shown) [X F B4 D6 Acid 25]
fraction fluorescent probe displaced, Screen (Acid 25): 0.15
fraction fluorescent probe displaced, Replicate (Acid 25): 0.07

O=C1CCSSCCNC(=O)C2(CCN(C(=O)/C=C/c3ccccc3)CC2)NC(=O)[C@H]2CCCN(C2)C(=O)[C@H](Cc2ccccc2)N1 [X F B4 D6 Acid 91]
fraction fluorescent probe displaced, Screen (Acid 91): 0.0563
fraction fluorescent probe displaced, Replicate (Acid 91): -0.00827

O=C1CCSSCCNC(=O)C2CN(C(=O)C=Cc3ccccc3)CCN2C(=O)C2CCCN(C2)C(=O)C(Cc2ccccc2)N1 (stereo not shown) [X F B4 D7 Acid 91]
fraction fluorescent probe displaced, Screen (Acid 91): 0.0563
fraction fluorescent probe displaced, Replicate (Acid 91): 0.0168

O=C1CCSSCCNC(=O)C(CNC(=O)c2ccc(Cl)s2)NC(=O)c2cccc(c2)CNC(=O)C(Cc2ccccc2)N1 (stereo not shown) [X F B5 D3 Acid 14]
fraction fluorescent probe displaced, Screen (Acid 14): 0.08
fraction fluorescent probe displaced, Replicate (Acid 14): -0.00432

O=C(/C=C/c1ccccc1)NC[C@@H]1NC(=O)c2cccc(c2)CNC(=O)[C@H](Cc2ccccc2)NC(=O)CCSSCCNC1=O [X F B5 D3 Acid 91]
fraction fluorescent probe displaced, Screen (Acid 91): -0.05
fraction fluorescent probe displaced, Replicate (Acid 91): 0.04

O=C1CCSSCCNC(=O)[C@@H]2C[C@H](NC(=O)c3ccc(Cl)cc3)CN2C(=O)c2cccc(c2)CNC(=O)[C@H](Cc2ccccc2)N1 [X F B5 D5 Acid 25]
fraction fluorescent probe displaced, Screen (Acid 25): 0.0244
fraction fluorescent probe displaced, Replicate (Acid 25): -0.00432

O=C1CCSSCCNC(=O)C2(CCN(C(=O)c3ccc(Cl)s3)CC2)NC(=O)c2cccc(c2)CNC(=O)C(Cc2ccccc2)N1 (stereo not shown) [X F B5 D6 Acid 14]
fraction fluorescent probe displaced, Screen (Acid 14): 0.11
fraction fluorescent probe displaced, Replicate (Acid 14): 0.10

O=C1CCSSCCNC(=O)C2(CCN(C(=O)c3ccc(Cl)cc3)CC2)NC(=O)c2cccc(c2)CNC(=O)[C@H](Cc2ccccc2)N1 [X F B5 D6 Acid 25]
fraction fluorescent probe displaced, Screen (Acid 25): 0.0569
fraction fluorescent probe displaced, Replicate (Acid 25): 0.0465

O=C1CCSSCCNC(=O)C2(CCN(C(=O)/C=C/c3ccccc3)CC2)NC(=O)c2cccc(c2)CNC(=O)[C@H](Cc2ccccc2)N1 [X F B5 D6 Acid 91]
fraction fluorescent probe displaced, Screen (Acid 91): -0.08
fraction fluorescent probe displaced, Replicate (Acid 91): -0.00827

O=C1CCSSCCNC(=O)C2CN(C(=O)C=Cc3ccccc3)CCN2C(=O)c2cccc(c2)CNC(=O)C(Cc2ccccc2)N1 (stereo not shown) [X F B5 D7 Acid 91]
fraction fluorescent probe displaced, Screen (Acid 91): -0.10
fraction fluorescent probe displaced, Replicate (Acid 91): -0.0333

O=C1CCSSCCNC(=O)[C@@H]2CCCN2C(=O)[C@H](CNC(=O)c2ccc(Cl)s2)NC(=O)[C@H](Cc2ccccc2)N1 [X F D3 B1 Acid 14] ([Mpa]F[Dap](2Thenoyl(5-Cl))P-Cysteamide; disulfide 1-C)
fraction fluorescent probe displaced, Screen (Acid 14): 0.08
fraction fluorescent probe displaced, Replicate (Acid 14): 0.10

O=C1CCSSCCNC(=O)[C@@H]2CCCN2C(=O)[C@H](CNC(=O)c2ccc(Cl)cc2)NC(=O)[C@H](Cc2ccccc2)N1 [X F D3 B1 Acid 25] ([Mpa]F[Dap](Benzoyl(4-Cl))P-Cysteamide; disulfide 1-C)
fraction fluorescent probe displaced, Screen (Acid 25): 0.0569
fraction fluorescent probe displaced, Replicate (Acid 25): 0.15

O=C(/C=C/c1ccccc1)NC[C@@H]1NC(=O)[C@H](Cc2ccccc2)NC(=O)CCSSCCNC(=O)[C@@H]2CCCN2C1=O [X F D3 B1 Acid 91] ([Mpa]F[Dap](X1)P-Cysteamide; disulfide 1-C)
fraction fluorescent probe displaced, Screen (Acid 91): -0.0241
fraction fluorescent probe displaced, Replicate (Acid 91): -0.00827

O=C1CCNC(=O)C(CNC(=O)c2ccc(Cl)s2)NC(=O)C(Cc2ccccc2)NC(=O)CCSSCCN1 (stereo not shown) [X F D3 B2 Acid 14]
fraction fluorescent probe displaced, Screen (Acid 14): 0.053
fraction fluorescent probe displaced, Replicate (Acid 14): 0.0465
